SMILES strings stand for the structures.

What is called IC50 is the midpoint of a concentration-inhibition curve.

The target of this experiment is T1, N-terminally GST-tagged human full length recombinant Mps-1 kinase (Homo sapiens, UniProt P33981).
T1 construct: N-terminally GST-tagged human full length recombinant Mps-1 kinase; purchased Invitrogen, Karslruhe, Germany PV4071
T1 sequence (P33981 1-857): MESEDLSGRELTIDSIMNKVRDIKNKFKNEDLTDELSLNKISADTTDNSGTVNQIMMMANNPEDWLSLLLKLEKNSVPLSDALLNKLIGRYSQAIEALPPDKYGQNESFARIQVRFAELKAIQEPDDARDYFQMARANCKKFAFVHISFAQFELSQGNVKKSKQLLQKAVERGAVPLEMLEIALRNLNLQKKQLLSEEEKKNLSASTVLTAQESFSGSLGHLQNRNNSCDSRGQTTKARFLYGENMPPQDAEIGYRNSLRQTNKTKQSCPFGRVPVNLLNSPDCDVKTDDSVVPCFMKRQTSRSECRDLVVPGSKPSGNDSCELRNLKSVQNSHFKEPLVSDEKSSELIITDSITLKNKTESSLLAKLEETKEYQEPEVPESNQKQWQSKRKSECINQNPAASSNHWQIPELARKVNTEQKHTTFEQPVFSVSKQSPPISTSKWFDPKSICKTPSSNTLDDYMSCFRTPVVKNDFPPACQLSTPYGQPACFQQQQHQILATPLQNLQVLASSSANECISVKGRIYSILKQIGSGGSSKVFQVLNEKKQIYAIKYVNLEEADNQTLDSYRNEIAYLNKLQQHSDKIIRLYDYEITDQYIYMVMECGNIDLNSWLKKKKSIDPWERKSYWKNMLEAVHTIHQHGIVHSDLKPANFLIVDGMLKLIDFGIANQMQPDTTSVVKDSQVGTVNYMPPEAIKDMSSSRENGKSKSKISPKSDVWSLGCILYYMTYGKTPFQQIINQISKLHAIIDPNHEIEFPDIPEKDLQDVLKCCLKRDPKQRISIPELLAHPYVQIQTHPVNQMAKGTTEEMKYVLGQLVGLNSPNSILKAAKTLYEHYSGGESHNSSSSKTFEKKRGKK
The experiment is described as follows: Mps-1 kinase assay (TR-FRET). In kind it is biochemical. As to conditions: Mps1 IC50 [nM], 10 μM ATP, 1 μM peptide substrate, 60 min at 22° C. The procedure, abridged: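 Read-out: TR-FRET from Europium-labelled anti-phospho(Ser/Thr) antibody to SA-XLent after 1 h detection incubation at 22° C. Inhibition of kinase activity measured.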
For orientation: In TR-FRET formats the signal depends on donor and acceptor labels being close together.
Take `Cc1cc(-c2cnc3c(NCC4CCOCC4)cc(-c4ccccc4CO)nn23)ccc1C(=O)NC1CC1` [Example 346, N-cyclopropyl-4-{6-[2-(hydroxy-methyl)phenyl]-8-[(tetrahydro-2H-pyran-4-ylmethyl)amino]imidazo[1,2-b]pyridazin-3-yl}-2-methyl-benzamide]: the IC50 turned out to be 1.6 nM.

Turning to `Cc1cc(-c2cnc3c(NCC(C)(C)O)cc(NC4CCNC4)nn23)ccc1C(=O)NC1CC1` (racemic) [Example 272, (RS)—N-cyclopropyl-4-{8-[(2-hydroxy-2-methylpropyl)amino]-6-(pyrrolidin-3-ylamino)imidazo[1,2-b]pyridazin-3-yl}-2-methylbenzamide], the IC50 was found to be 21.1 nM.

For `CCNC(=O)c1ccc(-c2cnc3c(NCCC(F)(F)F)cc(Oc4cccc(F)c4)nn23)cc1C` [Example 552, N-ethyl-4-{6-(3-fluorophenoxy)-8-[(3,3,3-trifluoropropyl)amino]imidazo[1,2-b]pyridazin-3-yl}-2-methylbenzamide], the concentration for half-maximal inhibition (IC50) stood at 0.2 nM.

With `CC=Cc1cc(NCCC(F)(F)F)c2ncc(-c3ccc(C(=O)NC4CC4)c(C)c3)n2n1` (mixture of isomers) [Example 23, N-cyclopropyl-2-methyl-4-{6-[(1E/Z)-prop-1-en-1-yl]-8-[(3,3,3-trifluoropropyl)amino]imidazo[1,2-b]pyridazin-3-yl}benzamide], the IC50 was 2.4 nM.

Turning to `Cc1cc(-c2cnc3c(NCCCO)cc(-c4ccnn4C)nn23)ccc1C(=O)NC1CC1` [Example 211, N-cyclopropyl-4-{8-[(3-hydroxypropyl)amino]-6-(1-methyl-1H-pyrazol-5-yl)imidazo[1,2-b]pyridazin-3-yl}-2-methylbenzamide], the IC50 is 5.8 nM.

`Cc1cc(-c2cnc3c(NCCN4CCCCC4)cc(Oc4cccc(F)c4)nn23)ccc1C(=O)NC1CC1` [Example 499, N-cyclopropyl-4-[6-(3-fluoro-phenoxy)-8-{[2-(piperidin-1-yl)ethyl]amino}imidazo[1,2-b]pyridazin-3-yl]-2-methyl-benzamide]: the IC50 is 0.2 nM.

`CC(C)CNc1cc(-c2cccc(C(N)=O)c2)nn2c(-c3ccc(C(=O)NC4CC4)cc3)cnc12` [Example 114, 4-{6-(3-Carbamoylphenyl)-8-[(2-methylpropyl)amino]imidazo[1,2-b]pyridazin-3-yl}-N-cyclopropylbenzamide]: the IC50 was less than 1 nM.

Consider `Cc1cc(-c2cnc3c(NCC(C)(C)O)cc(-c4ccccc4CF)nn23)ccc1C(=O)NC1CC1` [Example 222, N-cyclopropyl-4-{6-[2-(fluoromethyl)phenyl]-8-[(2-hydroxy-2-methylpropyl)amino]imidazo[1,2-b]pyridazin-3-yl}-2-methylbenzamide], for which the half-inhibitory concentration (IC50) stood at 2.1 nM.

In the case of `Cc1cc(-c2cnc3c(NCCC(F)(F)F)cc(-c4ccccc4CO)nn23)ccc1C(=O)NC1CC1` [Example 20, N-cyclopropyl-4-{6-[2-(hydroxymethyl)phenyl]-8-[(3,3,3-trifluoropropyl)amino]imidazo[1,2-b]pyridazin-3-yl}-2-methylbenzamide], the IC50 is 1.2 nM.

As for `CCNC(=O)c1ccc(-c2cnc3c(NCCN4CCOCC4)cc(Oc4ccccc4C)nn23)cc1C` [Example 589, N-ethyl-2-methyl-4-[6-(2-methylphenoxy)-8-{[2-(morpholin-4-yl)ethyl]amino}imidazo[1,2-b]pyridazin-3-yl]benzamide], the IC50 worked out at 4.3 nM.

`CC(C)(O)CNc1cc(Sc2cccc(F)c2)nn2c(-c3ccc(C(=S)NC4CC4)cc3)cnc12` [Example 246, N-cyclopropyl-4-{6-[(3-fluorophenyl)sulfanyl]-8-[(2-hydroxy-2-methylpropyl)amino]imidazo[1,2-b]pyridazin-3-yl}benzenecarbothioamide]: the IC50 is 0.6 nM.

As to `CC(C)CNc1cc(-c2cncnc2)nn2c(-c3ccc(C(=O)NC4CC4)cc3)cnc12` [Example 143, N-cyclopropyl-4-{8-[(2-methylpropyl)amino]-6-(pyrimidin-5-yl)imidazo [1,2-b]pyridazin-3-yl} benzamide], the IC50 worked out at 4.7 nM.

In the case of `Cc1cc(-c2cnc3c(NCC(C)(C)O)cc(N4CCCCC4)nn23)ccc1C(=O)NC1CC1` [Example 337, N-cyclopropyl-4-{8-[(2-hydroxy-2-methylpropyl)amino]-6-(piperidin-1-yl)imidazo[1,2-b]pyridazin-3-yl}-2-methyl-benzamide], the IC50 was 3.9 nM.

On to `Cc1cc(-c2cnc3c(NCC(C)(C)O)cc(OCC4CC4(F)F)nn23)ccc1C(=O)NC1CC1` (racemic) [Example 240, (RS)—N-cyclopropyl-4-{6-[(2,2-difluorocyclopropyl)methoxy]-8-[(2-hydroxy-2-methylpropyl)amino]imidazo[1,2-b]pyridazin-3-yl}-2-methylbenzamide], for which the IC50 came to 1.2 nM.

Turning to `Cc1cc(-c2cnc3c(NCC(C)(C)O)cc(Sc4cc(F)cc(F)c4)nn23)ccc1C(=O)NC1CC1` [Example 68, N-cyclopropyl-4-{6-[(3,5-difluorophenyl)sulfanyl]-8-[(2-hydroxy-2-methylpropyl)amino]imidazo[1,2-b]pyridazin-3-yl}-2-methylbenzamide], the IC50 is less than 0.1 nM.

As for `Cc1cc(-c2cnc3c(NCC(O)C(F)(F)F)cc(Oc4cccc(F)c4)nn23)ccc1C(=O)NC1CC1` (stereo not drawn) [Example 486, N-cyclopropyl-4-{6-(3-fluorophenoxy)-8-[(3,3,3-trifluoro-2-hydroxypropyl)amino]imidazo[1,2-b]pyridazin-3-yl}-2-methylbenzamide], the IC50 stood at 0.1 nM.

For the molecule `Cc1cc(-c2cnc3c(NCC4CCCCO4)cc(-c4ccncc4)nn23)ccc1C(=O)NC1CC1` (racemic) [Example 37, (RS)—N-cyclopropyl-2-methyl-4-{6-(pyridin-4-yl)-8-[(tetrahydro-2H-pyran-2-ylmethyl)amino]imidazo[1,2-b]pyridazin-3-yl}benzamide], the IC50 is less than 1 nM.

In the case of `Cc1cc(-c2cnc3c(NC[C@H]4CC[S@@+]([O-])CC4)cc(Sc4cccc(F)c4)nn23)ccc1C(=O)NC1CC1` [Example 304A, N-cyclopropyl-4-(6-[(3-fluorophenyl)sulfanyl]-8-({[(cis)-1-oxidotetrahydro-2H-thiopyran-4-yl]methyl}amino)imidazo[1,2-b]pyridazin-3-yl)-2-methylbenzamide], the IC50 is less than 0.1 nM.

As to `COc1ccc(Nc2cc(NCCC(F)(F)F)c3ncc(-c4ccc(C(=O)NC5CC5)c(C)c4)n3n2)cc1` [Example 425, N-cyclopropyl-4-{6-[(4-methoxyphenyl)amino]-8-[(3,3,3-trifluoropropyl)amino]imidazo[1,2-b]pyridazin-3-yl}-2-methylbenzamide], the IC50 amounted to 0.1 nM.

In the case of `CCNC(=O)c1ccc(-c2cnc3c(NCCC(F)(F)F)cc(Oc4ccc(OC)cc4F)nn23)cc1C` [Example 602, N-ethyl-4-{6-(2-fluoro-4-methoxyphenoxy)-8-[(3,3,3-trifluoropropyl)a-mino]imidazo[1,2-b]pyridazin-3-yl}-2-methylbenzamide], the IC50 is less than 1 nM.

As for `Cc1cc(-c2cnc3c(NCC4CC(=O)N(C)C4)cc(Oc4cccc(F)c4)nn23)ccc1C(=O)NC1CC1` (stereo not drawn) [Example 329, N-cyclopropyl-4-[6-(3-fluorophenoxy)-8-{[(1-methyl-5-oxopyrrolidin-3-yl)methyl]amino}imidazo [1,2-b]pyridazin-3-yl]-2-methylbenzamide], the IC50 is less than 0.1 nM.

`Cc1ccc(Cc2cc(NCCC(F)(F)F)c3ncc(-c4ccc(C(=O)NC5CC5)c(C)c4)n3n2)cc1F` [Example 484, N-cyclopropyl-4-{6-(3-fluoro-4-methylbenzyl)-8-[(3,3,3-tri-fluoropropyl)amino]imidazo [1,2-b]pyridazin-3-yl}-2-methylbenzamide]: the IC50 worked out at 0.3 nM.

Regarding `Cn1nccc1-c1cc(NC[C@H](O)[C@H]2COC(C)(C)O2)c2ncc(-c3ccc(C(=O)NC4CC4)cc3)n2n1` [Example 192, N-cyclopropyl-4-[8-({(2S)-2-[(4R)-2,2-dimethyl-1,3-dioxolan-4-yl]-2-hydroxyethyl}amino)-6-(1-methyl-1H-pyrazol-5-yl)imidazo[1,2-b]pyridazin-3-yl]benzamide], the IC50 was determined as 21.5 nM.

For the molecule `Cc1cc(-c2cnc3c(NCCC(F)(F)F)cc(Sc4ccccc4O)nn23)ccc1C(=O)NC1CC1` [Example 224, N-cyclopropyl-4-{6-[(2-hydroxyphenyl)sulfanyl]-8-[(3,3,3-trifluoropropyl)amino]imidazo[1,2-b]pyridazin-3-yl}-2-methylbenzamide], the concentration for half-maximal inhibition (IC50) was less than 0.1 nM.
